The text below walks through data of patent US20240237643A1, “COMPOSITIONS WITH VIRUCIDAL AND/OR ANTIVIRAL ACTIVITY” (priority 2020, published 2024).

Common to all, as to experiment: Virucidal activity, quantitative suspension test DIN EN 14476
What all share (format): cell-based

The test system of test [1] is Herpes simplex virus (HV).
Test [2] has as its system Human respiratory syncytial virus (HRSV).
Test [3] has as its system Influenza virus (H1N1).
Test [4] relates to Coronavirus (MHV-3). As to the method:
Testing was conducted over a period of 1 to 10 minutes. Activity against the following viruses was determined: • Coronavirus (MHV-3) • Influenza virus (H1N1) • Herpes simplex virus (HV) • Human respiratory syncytial virus (HRSV)
In this context (+) means that more than 99.99% of all viruses were inactivated; this is equivalent to a reduction factor of 10,000.

Setting [5] is: 0.1 wt.-percent in water, 1 min.
The mark [6] stands for this setting: 0.1 wt.-percent in water, 10 min.
Setting [7] is: 10 wt.-percent in water, 10 min.
[8] abbreviates: 33 wt.-percent in water, 10 min.

Structures are written as SMILES.

As to `CCCCC(O)CO` (stereo not shown) [1,2-hexanediol], the “Virucidal activity HV” value in test [1] (33 wt.-percent in water, 1 min) was “(+) ((+) means that more than 99.99% of all viruses were inactivated; this is equivalent to a reduction factor of 10,000)”. Also, the “Virucidal activity HRSV” value in test [2] (33 wt.-percent in water, 1 min) is listed as “(+) ((+) means that more than 99.99% of all viruses were inactivated; this is equivalent to a reduction factor of 10,000)”. Further, the “Virucidal activity H1N1” value in test [3] (33 wt.-percent in water, 1 min) is given as “(+) ((+) means that more than 99.99% of all viruses were inactivated; this is equivalent to a reduction factor of 10,000)”. Moreover, the “Virucidal activity MHV-3” value in test [4] (33 wt.-percent in water, 1 min) is reported as “(+) ((+) means that more than 99.99% of all viruses were inactivated; this is equivalent to a reduction factor of 10,000)”.
On to `CCCCCCCCC(O)CO` (stereo not shown) [1,2-decanediol], for which the “Virucidal activity HV” value in test [1] (setting [5]) is listed as “(+) ((+) means that more than 99.99% of all viruses were inactivated; this is equivalent to a reduction factor of 10,000)”; in test [1] (setting [6]), “(+) ((+) means that more than 99.99% of all viruses were inactivated; this is equivalent to a reduction factor of 10,000)”; in test [1] (1 wt.-percent in water, 1 min) it was “(+) ((+) means that more than 99.99% of all viruses were inactivated; this is equivalent to a reduction factor of 10,000)”; in test [1] (1 wt.-percent in water, 10 min), “(+) ((+) means that more than 99.99% of all viruses were inactivated; this is equivalent to a reduction factor of 10,000)”; in test [1] (10 wt.-percent in water, 1 min) it was “(+) ((+) means that more than 99.99% of all viruses were inactivated; this is equivalent to a reduction factor of 10,000)”; in test [1] (setting [7]) it was “(+) ((+) means that more than 99.99% of all viruses were inactivated; this is equivalent to a reduction factor of 10,000)”. The “Virucidal activity HRSV” value in test [2] (setting [5]) is “(+) ((+) means that more than 99.99% of all viruses were inactivated; this is equivalent to a reduction factor of 10,000)”; in test [2] (setting [6]) it was “(+) ((+) means that more than 99.99% of all viruses were inactivated; this is equivalent to a reduction factor of 10,000)”; in test [2] (1 wt.-percent in water, 1 min) it was “(+) ((+) means that more than 99.99% of all viruses were inactivated; this is equivalent to a reduction factor of 10,000)”; in test [2] (1 wt.-percent in water, 10 min), “(+) ((+) means that more than 99.99% of all viruses were inactivated; this is equivalent to a reduction factor of 10,000)”; in test [2] (10 wt.-percent in water, 1 min), “(+) ((+) means that more than 99.99% of all viruses were inactivated; this is equivalent to a reduction factor of 10,000)”; in test [2] (setting [7]) it was “(+) ((+) means that more than 99.99% of all viruses were inactivated; this is equivalent to a reduction factor of 10,000)”. In addition, the “Virucidal activity H1N1” value in test [3] (setting [5]) is “(+) ((+) means that more than 99.99% of all viruses were inactivated; this is equivalent to a reduction factor of 10,000)”; in test [3] (setting [6]), “(+) ((+) means that more than 99.99% of all viruses were inactivated; this is equivalent to a reduction factor of 10,000)”; in test [3] (1 wt.-percent in water, 1 min), “(+) ((+) means that more than 99.99% of all viruses were inactivated; this is equivalent to a reduction factor of 10,000)”; in test [3] (1 wt.-percent in water, 10 min), “(+) ((+) means that more than 99.99% of all viruses were inactivated; this is equivalent to a reduction factor of 10,000)”; in test [3] (10 wt.-percent in water, 1 min) it was “(+) ((+) means that more than 99.99% of all viruses were inactivated; this is equivalent to a reduction factor of 10,000)”; in test [3] (setting [7]), “(+) ((+) means that more than 99.99% of all viruses were inactivated; this is equivalent to a reduction factor of 10,000)”. Also, the “Virucidal activity MHV-3” value in test [4] (setting [5]) is listed as “(+) ((+) means that more than 99.99% of all viruses were inactivated; this is equivalent to a reduction factor of 10,000)”; in test [4] (setting [6]) it was “(+) ((+) means that more than 99.99% of all viruses were inactivated; this is equivalent to a reduction factor of 10,000)”; in test [4] (1 wt.-percent in water, 1 min) it was “(+) ((+) means that more than 99.99% of all viruses were inactivated; this is equivalent to a reduction factor of 10,000)”; in test [4] (1 wt.-percent in water, 10 min) it was “(+) ((+) means that more than 99.99% of all viruses were inactivated; this is equivalent to a reduction factor of 10,000)”; in test [4] (10 wt.-percent in water, 1 min), “(+) ((+) means that more than 99.99% of all viruses were inactivated; this is equivalent to a reduction factor of 10,000)”; in test [4] (setting [7]) it was “(+) ((+) means that more than 99.99% of all viruses were inactivated; this is equivalent to a reduction factor of 10,000)”.
In the case of `Cc1cc(O)ccc1C(C)C` [4-isopropyl-3-methylphenol], the “Virucidal activity HV” value is on record as “(+) ((+) means that more than 99.99% of all viruses were inactivated; this is equivalent to a reduction factor of 10,000)” in test [1] (setting [5]); “(+) ((+) means that more than 99.99% of all viruses were inactivated; this is equivalent to a reduction factor of 10,000)” in test [1] (setting [6]); “(+) ((+) means that more than 99.99% of all viruses were inactivated; this is equivalent to a reduction factor of 10,000)” in test [1] (1 wt.-percent in water, 1 min); “(+) ((+) means that more than 99.99% of all viruses were inactivated; this is equivalent to a reduction factor of 10,000)” in test [1] (1 wt.-percent in water, 10 min); “(+) ((+) means that more than 99.99% of all viruses were inactivated; this is equivalent to a reduction factor of 10,000)” in test [1] (10 wt.-percent in water, 1 min); “(+) ((+) means that more than 99.99% of all viruses were inactivated; this is equivalent to a reduction factor of 10,000)” in test [1] (setting [7]). The “Virucidal activity HRSV” value in test [2] (setting [5]) is “(+) ((+) means that more than 99.99% of all viruses were inactivated; this is equivalent to a reduction factor of 10,000)”; in test [2] (setting [6]) it was “(+) ((+) means that more than 99.99% of all viruses were inactivated; this is equivalent to a reduction factor of 10,000)”; in test [2] (1 wt.-percent in water, 1 min), “(+) ((+) means that more than 99.99% of all viruses were inactivated; this is equivalent to a reduction factor of 10,000)”; in test [2] (1 wt.-percent in water, 10 min), “(+) ((+) means that more than 99.99% of all viruses were inactivated; this is equivalent to a reduction factor of 10,000)”; in test [2] (10 wt.-percent in water, 1 min), “(+) ((+) means that more than 99.99% of all viruses were inactivated; this is equivalent to a reduction factor of 10,000)”; in test [2] (setting [7]), “(+) ((+) means that more than 99.99% of all viruses were inactivated; this is equivalent to a reduction factor of 10,000)”. Further, the “Virucidal activity H1N1” value is recorded as “(+) ((+) means that more than 99.99% of all viruses were inactivated; this is equivalent to a reduction factor of 10,000)” in test [3] (setting [5]); “(+) ((+) means that more than 99.99% of all viruses were inactivated; this is equivalent to a reduction factor of 10,000)” in test [3] (setting [6]); “(+) ((+) means that more than 99.99% of all viruses were inactivated; this is equivalent to a reduction factor of 10,000)” in test [3] (1 wt.-percent in water, 1 min); “(+) ((+) means that more than 99.99% of all viruses were inactivated; this is equivalent to a reduction factor of 10,000)” in test [3] (1 wt.-percent in water, 10 min); “(+) ((+) means that more than 99.99% of all viruses were inactivated; this is equivalent to a reduction factor of 10,000)” in test [3] (10 wt.-percent in water, 1 min); “(+) ((+) means that more than 99.99% of all viruses were inactivated; this is equivalent to a reduction factor of 10,000)” in test [3] (setting [7]). Moreover, the “Virucidal activity MHV-3” value in test [4] (setting [5]) was “(+) ((+) means that more than 99.99% of all viruses were inactivated; this is equivalent to a reduction factor of 10,000)”; in test [4] (setting [6]) it was “(+) ((+) means that more than 99.99% of all viruses were inactivated; this is equivalent to a reduction factor of 10,000)”; in test [4] (1 wt.-percent in water, 1 min) it was “(+) ((+) means that more than 99.99% of all viruses were inactivated; this is equivalent to a reduction factor of 10,000)”; in test [4] (1 wt.-percent in water, 10 min), “(+) ((+) means that more than 99.99% of all viruses were inactivated; this is equivalent to a reduction factor of 10,000)”; in test [4] (10 wt.-percent in water, 1 min), “(+) ((+) means that more than 99.99% of all viruses were inactivated; this is equivalent to a reduction factor of 10,000)”; in test [4] (setting [7]) it was “(+) ((+) means that more than 99.99% of all viruses were inactivated; this is equivalent to a reduction factor of 10,000)”.
Take `CCCC(O)CO` (stereo not shown) [1,2-pentanediol]: the “Virucidal activity HV” value in test [1] (33 wt.-percent in water, 1 min) is reported as “(+) ((+) means that more than 99.99% of all viruses were inactivated; this is equivalent to a reduction factor of 10,000)”; in test [1] (33 wt.-percent in water, 5 min), “(+) ((+) means that more than 99.99% of all viruses were inactivated; this is equivalent to a reduction factor of 10,000)”; in test [1] (setting [8]), “(+) ((+) means that more than 99.99% of all viruses were inactivated; this is equivalent to a reduction factor of 10,000)”. Further, the “Virucidal activity HRSV” value in test [2] (33 wt.-percent in water, 1 min) is “(+) ((+) means that more than 99.99% of all viruses were inactivated; this is equivalent to a reduction factor of 10,000)”; in test [2] (33 wt.-percent in water, 5 min), “(+) ((+) means that more than 99.99% of all viruses were inactivated; this is equivalent to a reduction factor of 10,000)”; in test [2] (setting [8]), “(+) ((+) means that more than 99.99% of all viruses were inactivated; this is equivalent to a reduction factor of 10,000)”. In addition, the “Virucidal activity H1N1” value was “(+) ((+) means that more than 99.99% of all viruses were inactivated; this is equivalent to a reduction factor of 10,000)” in test [3] (33 wt.-percent in water, 1 min); “(+) ((+) means that more than 99.99% of all viruses were inactivated; this is equivalent to a reduction factor of 10,000)” in test [3] (33 wt.-percent in water, 5 min); “(+) ((+) means that more than 99.99% of all viruses were inactivated; this is equivalent to a reduction factor of 10,000)” in test [3] (setting [8]). Moreover, the “Virucidal activity MHV-3” value was “(+) ((+) means that more than 99.99% of all viruses were inactivated; this is equivalent to a reduction factor of 10,000)” in test [4] (33 wt.-percent in water, 1 min); “(+) ((+) means that more than 99.99% of all viruses were inactivated; this is equivalent to a reduction factor of 10,000)” in test [4] (33 wt.-percent in water, 5 min); “(+) ((+) means that more than 99.99% of all viruses were inactivated; this is equivalent to a reduction factor of 10,000)” in test [4] (setting [8]).
